# Source: paper PMC7489219 (Molecular Brain, 2020)
# Structures can show the parent of a compound that is named as a salt.
# Tested on: T1, primary mouse cortical neurons
# T1 construct: primary cortical neurons, DIV 10
# Assay: cells
# Design: Protection from NMDA-induced (30 uM, 10 min) neuronal death; Hoechst nuclear morphology by automated microscopy
# Settings: Cortical neurone, 20 h, read-out: % inhibition, inhibition of NMDA-induced cell death (protection score), 30 min pre-treatment
# Protocol: On DIV 10, compounds were applied to the cells reaching an end concentration of 10 μM. Cells were incubated for 30 min at 37 °C, 5% CO2 before adding NMDA (30 μM). Cells were incubated for another 10 min in the incubator, then washed twice with defined minimal medium containing 10 μM of the respective compound and incubated for an additional 20 h before readout. Untreated (no NMDA) and NMDA-only stimulated wells were treated with 0.1% DMSO. […] After 15 min of incubation at room temperature, cells were washed twice with phosphate buffered saline. […] Dead neurons were identified by amorphous or shrunken nuclei using CellProfiler and CellProfiler Analyst software. For all cell death analyses the experimental unit (N) is defined as an independent experiment using an independent neuronal preparation. For each independent experiment, data from 3 replicate wells (i.e., from 36 images), representing an average of 3000 cells was analyzed per condition. The survival rate S was calculated by dividing the number of living cells by the total number of cells. The survival rate was then used to calculate the protection score according to Scompound−Svehicle/Suntreated−Svehicle×100=%protection , where ‘compound’ refers to compound + NMDA treatment, ‘vehicle’ refers to vehicle + NMDA treatment, and ‘untreated’ refers to DMSO control. […] As a proof of principle, we next used our assay to screen two commercially available drug libraries. In these screens, primary cortical cells were incubated with test compounds at 10 μM concentration for 30 min before addition of 30 μM NMDA. After 10 min NMDA treatment, cells were washed with fresh medium and kept in the presence of test compounds for 20 h until assessment of cell viability. […] This library covers structurally diverse drugs from several fields such as oncology, cardiology, immunology, and neurology/psychiatry.
row,Structure (SMILES),inhibition at 10 µM [%]
1,Nc1nc2ccc(OC(F)(F)F)cc2s1 [Riluzole (Rilutek)],40.9
2,CCCc1nn(C)c2c(=O)[nH]c(-c3cc(S(=O)(=O)N4CCN(C)CC4)ccc3OCC)nc12 [Sildenafil citrate],4.4
3,CC1=C(/C=C/C(C)=C/C=C/C(C)=C/C(=O)O)C(C)(C)CCC1 [Tretinoin (Aberela)],-38.4
4,Cc1nc(Nc2ncc(C(=O)Nc3c(C)cccc3Cl)s2)cc(N2CCN(CCO)CC2)n1 [Dasatinib (BMS-354825)],-9.79
5,OCc1ccc(O[C@@H]2O[C@H](CO)[C@@H](O)[C@H](O)[C@H]2O)cc1 [Gastrodin(Gastrodine)],3.84
6,O=C1Cc2cc(CCN3CCN(c4nsc5ccccc45)CC3)c(Cl)cc2N1 [Ziprasidone hydrochloride],8.38
7,CCC(C)n1ncn(-c2ccc(N3CCN(c4ccc(OC[C@H]5CO[C@](Cn6cncn6)(c6ccc(Cl)cc6Cl)O5)cc4)CC3)cc2)c1=O (mixture of isomers) [Itraconazole (Sporanox)],2.19
8,CC(=O)OCC(=O)[C@@]1(O)CC[C@H]2[C@@H]3CCC4=CC(=O)CC[C@]4(C)[C@H]3C(=O)C[C@@]21C [Cortisone acetate (Cortone)],-0.736
9,Nc1ccn([C@@H]2O[C@H](CO)[C@@H](O)C2(F)F)c(=O)n1 [Gemcitabine HCl (Gemzar)],-9.76
10,NCCS(=O)(=O)O [Taurine],8.63
11,COc1ccccc1N1CCN(CC(O)COc2cccc3ccccc23)CC1 (stereo not shown) [Naftopidil (Flivas)],-8.14
12,CCCc1nc2c(C)cc(-c3nc4ccccc4n3C)cc2n1Cc1ccc(-c2ccccc2C(=O)O)cc1 [Telmisartan (Micardis)],0.71
13,C[C@H]([C@H](O)CCC(C)(C)O)[C@H]1CC[C@@]2(O)C3=CC(=O)[C@@H]4C[C@@H](O)[C@@H](O)C[C@]4(C)[C@H]3CC[C@]12C [Ecdysone],0.187
14,CC(=O)[C@H]1CC[C@H]2[C@@H]3CCC4=CC(=O)CC[C@]4(C)[C@H]3CC[C@]12C [Progesterone (Prometrium)],7.11
15,O=c1n(CCCN2CCN(c3cccc(Cl)c3)CC2)nc2ccccn12 [Trazodone hydrochloride (Desyrel)],-1.4
16,"Cn1c(CNc2ccc(C(=N)N)cc2)nc2cc(C(=O)N(CCC(=O)O)c3ccccn3)ccc21 [BIBR 953 (Dabigatran etexilate, Pradaxa)]",-1.4
17,CC1(C)O[C@@H]2C[C@H]3[C@@H]4CCC5=CC(=O)C=C[C@]5(C)[C@@]4(F)[C@@H](O)C[C@]3(C)[C@]2(C(=O)CO)O1 [Triamcinolone acetonide],59.8
18,COc1cc([C@@H]2c3cc4c(cc3[C@@H](O[C@@H]3O[C@@H]5CO[C@@H](C)O[C@H]5[C@H](O)[C@H]3O)[C@H]3COC(=O)[C@H]23)OCO4)cc(OC)c1O [Etoposide (VP-16)],-11.8
19,Nc1ccc(S(=O)(=O)Nc2ncccn2)cc1 [Sulfadiazine],17.4
20,"CCCCCCCCCCC[C@@H](C[C@@H]1OC(=O)[C@H]1CCCCCC)OC(=O)[C@H](CC(C)C)NC=O [Orlistat (Alli, Xenical)]",-9.87
21,Cc1cccc(C)c1OCC(=O)N[C@@H](Cc1ccccc1)[C@@H](O)C[C@H](Cc1ccccc1)NC(=O)[C@H](C(C)C)N1CCCNC1=O [Lopinavir (ABT-378)],1.09
22,COc1cnc(NS(=O)(=O)c2ccc(N)cc2)nc1 [Sulfameter (Bayrena)],28.2
23,N#Cc1ccc(C(c2ccc(C#N)cc2)n2cncn2)cc1 [Letrozole],0.34
24,C=C1C[C@@H]2[C@H](CC[C@]3(C)C(=O)CC[C@@H]23)[C@@]2(C)C=CC(=O)C=C12 [Exemestane],-1.67
25,CC(=O)O[C@@]12CO[C@@H]1C[C@H](O)[C@@]1(C)C(=O)[C@H](O)C3=C(C)[C@@H](OC(=O)[C@H](O)[C@@H](NC(=O)OC(C)(C)C)c4ccccc4)C[C@@](O)([C@@H](OC(=O)c4ccccc4)[C@H]21)C3(C)C [Docetaxel (Taxotere)],-4.27
